The source made the active and inactive calls. No cut-off for these calls is given here.
Tested on: Spermatozoa
Assay: Spermatostatic activity in rat cauda epididymal spermatozoa assessed as motility effect at 0.5 mg/mL for 30 mins by microscopic method
Format: functional, cell-based

Which Activity does the source give for `C=C(CC[C@@H](C)[C@H]1[C@@H](O)C[C@H]2[C@@H]3[C@@H](O)C=C4C[C@@H](O[C@@H]5O[C@@H](C)[C@@H](OC(C)=O)[C@@H](O)[C@@H]5O)CC[C@]4(C)[C@H]3CC[C@]12C)C(C)C` here?
The Activity was “Active”.

From ChEMBL document CHEMBL1147315, “A new spermatostatic glycoside from the soft coral Sinularia crispa” (J Nat Prod, 1989)
